Laboratory results published in patent publication US20120270237A9, “METHODS FOR THE IDENTIFICATION OF KINASE INTERACTING MOLECULES AND FOR THE PURIFICATION OF KINASE PROTEINS” (Cellzone AG, priority 2009, published 2012).

Key:
Assay in all cases: Kinobeads competition binding, HeLa Placenta lysate mix
Set-up in all cases: endogenous in cells
Settings in all cases: 10 μM free compound
GSK3B = GSK3B (Homo sapiens, UniProt P49841)
Summary of the method: (§1)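 10 μM free cpd → lysate, bind; add immobilized-cpd beads; elute SDS, SDS-PAGE, in-gel trypsin. DMSO ctrl aliquot parallel. iTRAQ 114/117 labeling, nano-LC-MS/MS, reporter ion quant.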

TAO3 = molecular target: T1, TAO3 (Homo sapiens, UniProt Q9H2K8)
T1 sequence (Q9H2K8 1-898): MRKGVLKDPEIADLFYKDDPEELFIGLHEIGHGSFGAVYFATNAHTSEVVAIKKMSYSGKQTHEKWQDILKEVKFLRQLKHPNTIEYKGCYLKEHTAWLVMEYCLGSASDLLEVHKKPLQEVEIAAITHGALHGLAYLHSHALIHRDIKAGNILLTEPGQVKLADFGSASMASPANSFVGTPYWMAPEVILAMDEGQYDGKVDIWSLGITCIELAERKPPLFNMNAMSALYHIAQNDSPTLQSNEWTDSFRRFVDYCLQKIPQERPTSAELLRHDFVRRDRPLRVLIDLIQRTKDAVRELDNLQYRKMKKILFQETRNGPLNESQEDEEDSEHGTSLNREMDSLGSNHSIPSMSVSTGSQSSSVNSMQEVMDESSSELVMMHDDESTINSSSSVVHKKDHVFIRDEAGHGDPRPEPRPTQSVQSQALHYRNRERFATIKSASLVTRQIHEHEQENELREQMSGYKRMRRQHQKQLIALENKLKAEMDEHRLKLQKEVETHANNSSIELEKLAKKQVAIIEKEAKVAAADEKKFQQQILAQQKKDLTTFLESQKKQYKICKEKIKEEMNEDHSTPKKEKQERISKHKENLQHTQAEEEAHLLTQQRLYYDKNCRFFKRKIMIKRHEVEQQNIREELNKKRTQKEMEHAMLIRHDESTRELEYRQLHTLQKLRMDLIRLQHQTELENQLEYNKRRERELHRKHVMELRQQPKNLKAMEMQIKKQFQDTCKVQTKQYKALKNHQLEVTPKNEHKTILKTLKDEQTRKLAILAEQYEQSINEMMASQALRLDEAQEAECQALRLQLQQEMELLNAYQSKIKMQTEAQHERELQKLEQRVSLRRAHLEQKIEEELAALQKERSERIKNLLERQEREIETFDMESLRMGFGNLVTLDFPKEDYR
Summary of the method: as §1

LRRK2 = LRRK2 (Homo sapiens, UniProt Q5S007)
Chain of LRRK2 (Q5S007 whole entry): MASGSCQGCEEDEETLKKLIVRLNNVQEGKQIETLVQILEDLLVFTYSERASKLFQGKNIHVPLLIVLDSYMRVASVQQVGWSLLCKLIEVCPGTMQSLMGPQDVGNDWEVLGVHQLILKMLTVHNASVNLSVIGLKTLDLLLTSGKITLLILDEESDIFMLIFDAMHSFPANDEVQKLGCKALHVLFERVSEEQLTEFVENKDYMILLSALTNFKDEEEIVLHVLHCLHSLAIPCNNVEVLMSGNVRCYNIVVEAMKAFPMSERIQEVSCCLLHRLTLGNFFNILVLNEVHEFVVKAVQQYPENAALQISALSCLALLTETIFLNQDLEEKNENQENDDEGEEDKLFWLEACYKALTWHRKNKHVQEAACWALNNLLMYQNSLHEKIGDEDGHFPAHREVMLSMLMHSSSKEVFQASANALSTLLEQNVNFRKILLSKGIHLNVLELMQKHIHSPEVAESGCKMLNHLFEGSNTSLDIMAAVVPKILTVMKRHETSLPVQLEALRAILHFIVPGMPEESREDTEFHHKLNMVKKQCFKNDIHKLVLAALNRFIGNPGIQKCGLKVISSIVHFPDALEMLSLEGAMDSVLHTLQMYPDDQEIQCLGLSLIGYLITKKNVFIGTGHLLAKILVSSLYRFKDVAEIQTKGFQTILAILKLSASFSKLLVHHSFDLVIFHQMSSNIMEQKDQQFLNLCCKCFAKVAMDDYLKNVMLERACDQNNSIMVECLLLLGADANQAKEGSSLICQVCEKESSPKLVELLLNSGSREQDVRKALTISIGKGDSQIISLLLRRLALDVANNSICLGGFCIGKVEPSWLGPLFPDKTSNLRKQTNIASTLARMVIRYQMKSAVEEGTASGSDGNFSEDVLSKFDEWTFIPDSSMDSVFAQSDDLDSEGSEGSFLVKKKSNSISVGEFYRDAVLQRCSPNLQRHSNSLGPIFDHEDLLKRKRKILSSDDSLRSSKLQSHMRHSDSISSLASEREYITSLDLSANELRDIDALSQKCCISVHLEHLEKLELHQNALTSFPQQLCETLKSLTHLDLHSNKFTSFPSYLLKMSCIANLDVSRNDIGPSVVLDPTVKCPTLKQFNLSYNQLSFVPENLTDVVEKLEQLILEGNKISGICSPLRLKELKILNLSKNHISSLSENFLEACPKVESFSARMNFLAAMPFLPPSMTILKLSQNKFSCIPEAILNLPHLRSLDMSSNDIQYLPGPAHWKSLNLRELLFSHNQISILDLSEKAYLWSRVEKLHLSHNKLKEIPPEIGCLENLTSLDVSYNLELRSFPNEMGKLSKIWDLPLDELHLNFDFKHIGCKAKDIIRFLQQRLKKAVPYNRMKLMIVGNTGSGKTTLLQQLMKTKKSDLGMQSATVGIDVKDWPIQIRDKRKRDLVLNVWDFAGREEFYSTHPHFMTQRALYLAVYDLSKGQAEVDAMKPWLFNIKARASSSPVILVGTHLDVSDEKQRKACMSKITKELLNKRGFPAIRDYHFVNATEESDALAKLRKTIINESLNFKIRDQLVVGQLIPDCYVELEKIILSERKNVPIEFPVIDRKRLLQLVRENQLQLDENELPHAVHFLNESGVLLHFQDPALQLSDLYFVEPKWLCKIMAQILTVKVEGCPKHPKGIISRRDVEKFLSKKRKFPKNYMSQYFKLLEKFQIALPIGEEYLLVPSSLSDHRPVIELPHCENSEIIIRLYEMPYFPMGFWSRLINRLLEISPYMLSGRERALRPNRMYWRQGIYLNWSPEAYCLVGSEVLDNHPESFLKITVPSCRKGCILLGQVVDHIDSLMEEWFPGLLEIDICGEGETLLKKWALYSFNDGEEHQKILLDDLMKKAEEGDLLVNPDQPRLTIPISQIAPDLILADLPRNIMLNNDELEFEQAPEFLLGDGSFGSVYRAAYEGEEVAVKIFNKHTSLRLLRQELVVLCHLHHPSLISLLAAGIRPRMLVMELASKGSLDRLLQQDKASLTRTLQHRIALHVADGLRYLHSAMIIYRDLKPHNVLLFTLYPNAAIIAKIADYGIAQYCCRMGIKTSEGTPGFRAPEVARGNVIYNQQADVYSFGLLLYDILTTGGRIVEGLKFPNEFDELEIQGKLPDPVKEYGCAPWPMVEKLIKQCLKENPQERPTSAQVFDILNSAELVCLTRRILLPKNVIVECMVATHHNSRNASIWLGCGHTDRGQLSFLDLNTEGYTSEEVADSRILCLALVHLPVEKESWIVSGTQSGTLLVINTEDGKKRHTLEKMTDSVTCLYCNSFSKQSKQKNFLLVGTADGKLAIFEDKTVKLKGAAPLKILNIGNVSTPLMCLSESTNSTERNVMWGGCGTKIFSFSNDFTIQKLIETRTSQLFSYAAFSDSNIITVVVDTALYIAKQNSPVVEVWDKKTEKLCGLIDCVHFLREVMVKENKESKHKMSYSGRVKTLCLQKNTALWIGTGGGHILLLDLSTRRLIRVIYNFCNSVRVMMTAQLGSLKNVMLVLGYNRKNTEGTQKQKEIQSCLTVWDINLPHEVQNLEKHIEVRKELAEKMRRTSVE
Summary of the method: as §1

GSK3A = GSK3A (Homo sapiens, UniProt P49840)
Chain of GSK3A (P49840 whole entry): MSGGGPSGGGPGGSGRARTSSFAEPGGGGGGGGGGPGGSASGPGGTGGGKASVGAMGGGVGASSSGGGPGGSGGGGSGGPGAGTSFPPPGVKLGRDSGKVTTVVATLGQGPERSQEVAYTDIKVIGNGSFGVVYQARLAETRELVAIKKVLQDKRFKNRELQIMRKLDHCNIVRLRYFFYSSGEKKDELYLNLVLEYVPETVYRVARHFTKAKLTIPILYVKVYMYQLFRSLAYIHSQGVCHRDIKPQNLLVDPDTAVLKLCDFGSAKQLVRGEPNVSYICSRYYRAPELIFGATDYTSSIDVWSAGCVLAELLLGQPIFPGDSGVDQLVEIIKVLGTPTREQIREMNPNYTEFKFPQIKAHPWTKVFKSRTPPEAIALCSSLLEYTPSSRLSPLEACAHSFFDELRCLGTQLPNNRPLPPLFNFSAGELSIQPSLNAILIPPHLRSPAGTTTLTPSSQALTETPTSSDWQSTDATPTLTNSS
Summary of the method: as §1

CaMK2g = CaMK2g (Homo sapiens, UniProt Q13555)
Chain of CaMK2g (Q13555 whole entry): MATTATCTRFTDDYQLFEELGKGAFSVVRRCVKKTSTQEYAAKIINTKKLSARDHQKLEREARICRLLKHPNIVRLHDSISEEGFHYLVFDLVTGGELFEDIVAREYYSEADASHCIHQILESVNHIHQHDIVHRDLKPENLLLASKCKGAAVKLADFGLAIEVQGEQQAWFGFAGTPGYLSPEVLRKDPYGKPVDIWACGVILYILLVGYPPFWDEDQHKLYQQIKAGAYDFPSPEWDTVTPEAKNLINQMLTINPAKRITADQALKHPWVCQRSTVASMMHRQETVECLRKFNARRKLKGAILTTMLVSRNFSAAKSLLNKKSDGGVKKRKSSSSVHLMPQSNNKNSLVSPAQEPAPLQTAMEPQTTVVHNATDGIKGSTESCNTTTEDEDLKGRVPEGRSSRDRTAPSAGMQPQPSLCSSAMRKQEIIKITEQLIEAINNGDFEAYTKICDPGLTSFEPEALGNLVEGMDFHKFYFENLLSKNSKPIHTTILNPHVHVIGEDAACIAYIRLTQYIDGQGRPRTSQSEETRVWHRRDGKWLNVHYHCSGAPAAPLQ
Summary of the method: as §1

BCR = BCR (Homo sapiens, UniProt P11274)
Summary of the method: as §1

TBK1 = molecular target: T2, TBK1 (Homo sapiens, UniProt Q9UHD2)
T2 sequence (Q9UHD2 1-729): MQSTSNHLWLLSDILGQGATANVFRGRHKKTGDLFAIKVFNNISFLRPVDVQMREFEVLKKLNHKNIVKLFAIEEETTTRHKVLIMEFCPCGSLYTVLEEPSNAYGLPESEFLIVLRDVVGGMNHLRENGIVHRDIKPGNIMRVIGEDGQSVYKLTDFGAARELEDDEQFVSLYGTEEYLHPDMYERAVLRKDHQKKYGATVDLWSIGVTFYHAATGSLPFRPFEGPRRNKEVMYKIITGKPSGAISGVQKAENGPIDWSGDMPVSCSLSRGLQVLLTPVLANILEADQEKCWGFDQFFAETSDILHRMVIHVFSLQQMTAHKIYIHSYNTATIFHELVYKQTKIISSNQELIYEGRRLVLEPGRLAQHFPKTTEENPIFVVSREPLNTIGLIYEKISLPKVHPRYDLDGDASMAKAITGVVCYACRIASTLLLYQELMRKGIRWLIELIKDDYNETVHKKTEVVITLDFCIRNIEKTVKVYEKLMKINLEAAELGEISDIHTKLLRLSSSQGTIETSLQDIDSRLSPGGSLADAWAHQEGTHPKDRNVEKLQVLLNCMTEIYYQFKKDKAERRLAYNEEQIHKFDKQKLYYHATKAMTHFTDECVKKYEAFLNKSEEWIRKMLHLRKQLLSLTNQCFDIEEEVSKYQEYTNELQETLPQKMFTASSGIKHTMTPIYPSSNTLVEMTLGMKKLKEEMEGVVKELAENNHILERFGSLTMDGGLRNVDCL
Summary of the method: as §1

Chain of GSK3B (P49841 whole entry): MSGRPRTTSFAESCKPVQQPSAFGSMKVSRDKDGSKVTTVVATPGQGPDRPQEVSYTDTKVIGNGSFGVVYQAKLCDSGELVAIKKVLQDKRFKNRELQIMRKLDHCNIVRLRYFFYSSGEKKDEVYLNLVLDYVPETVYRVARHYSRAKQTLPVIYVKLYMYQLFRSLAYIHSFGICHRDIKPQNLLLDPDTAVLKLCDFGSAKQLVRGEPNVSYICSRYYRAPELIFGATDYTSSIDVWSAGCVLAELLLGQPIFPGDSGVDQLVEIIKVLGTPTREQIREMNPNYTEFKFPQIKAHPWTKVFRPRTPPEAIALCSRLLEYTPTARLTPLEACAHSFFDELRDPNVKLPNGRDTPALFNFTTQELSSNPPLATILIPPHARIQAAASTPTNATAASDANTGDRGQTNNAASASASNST

Work on CS(=O)(=O)Nc1ccccc1Nc1nc(Nc2cccc(OCCN)c2)ncc1Cl [CZC31326, N-(2-(2-(3-(2-aminoethoxy)phenylamino)-5-chloropyrimidin-4-ylamino)phenyl)methanesulfonamide] yielded an inhibition at 10 µM (GSK3B) of 93.3%, an inhibition at 10 µM (TAO3) of 94.4% and an inhibition at 10 µM (LRRK2) of 85.2%. For the same compound, the inhibition at 10 µM (GSK3A) was 93.7%, the inhibition at 10 µM (CaMK2g) was 84.8% and the inhibition at 10 µM (BCR) was 90.2%. The inhibition at 10 µM (TBK1) was 93.8%.
